Assay results: patent publication US20240209028A1, “CNP COMPOUNDS” (priority 2022, published 2024)
Starred links: 1 amine or outer side, 2 acyl side, 3 side chain; linkers in the order of their positions; H or OH if unused. Positions of bridges follow the written chain, without caps; N, C: chain ends. Residues, ends and D or L forms follow the SMILES beside them. *: point of attachment. C18 diacid = O=C(O)CCCCCCCCCCCCCCCCC(=O)*; γGlu = O=C(O)[C@H](CCC(=O)[*:2])N[*:1]; AEEA = NCCOCCOCC(=O)O

Target: T1, human natriuretic peptide receptor 2 (hNPR2) (Homo sapiens, UniProt P20594)
T1 construct: expressed in transfected cells; host or cells: HEK293 (ATCC CRL-1573), clone 35, co-transfected with pGloSensor-42F
T1 sequence (P20594 23-1047): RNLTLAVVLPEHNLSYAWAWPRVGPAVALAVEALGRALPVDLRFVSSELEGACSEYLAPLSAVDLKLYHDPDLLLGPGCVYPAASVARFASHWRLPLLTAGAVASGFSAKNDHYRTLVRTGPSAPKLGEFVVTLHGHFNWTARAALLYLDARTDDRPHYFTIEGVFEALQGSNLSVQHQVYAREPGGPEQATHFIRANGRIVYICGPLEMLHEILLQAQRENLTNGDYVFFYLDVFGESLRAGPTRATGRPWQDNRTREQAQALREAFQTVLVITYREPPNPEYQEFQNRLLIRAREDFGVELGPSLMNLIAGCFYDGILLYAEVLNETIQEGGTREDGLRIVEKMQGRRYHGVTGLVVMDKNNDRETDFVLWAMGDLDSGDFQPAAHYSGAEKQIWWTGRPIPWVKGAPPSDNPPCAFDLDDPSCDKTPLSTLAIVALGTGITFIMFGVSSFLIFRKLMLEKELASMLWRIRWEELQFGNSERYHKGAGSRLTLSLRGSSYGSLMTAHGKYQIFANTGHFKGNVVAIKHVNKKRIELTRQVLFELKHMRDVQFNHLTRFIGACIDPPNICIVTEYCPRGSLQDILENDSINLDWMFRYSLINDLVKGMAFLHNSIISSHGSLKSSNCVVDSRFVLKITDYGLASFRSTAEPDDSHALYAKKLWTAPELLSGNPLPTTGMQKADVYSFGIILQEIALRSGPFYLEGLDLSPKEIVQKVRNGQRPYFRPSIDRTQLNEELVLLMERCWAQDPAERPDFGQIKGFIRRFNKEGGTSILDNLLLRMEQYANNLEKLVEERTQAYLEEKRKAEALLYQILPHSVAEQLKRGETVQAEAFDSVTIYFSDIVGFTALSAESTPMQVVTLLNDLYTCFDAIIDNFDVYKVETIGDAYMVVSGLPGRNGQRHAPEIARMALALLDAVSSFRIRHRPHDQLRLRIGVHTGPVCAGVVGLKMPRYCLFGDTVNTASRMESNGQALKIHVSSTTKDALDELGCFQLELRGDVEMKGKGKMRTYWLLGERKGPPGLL
Assay: In vitro hNPR2 activity assay (cGMP GloSensor reporter, HEK293)
Type: cell-based
Settings: potency relative to CNP22 (0065)
How it was run: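 Potency is the EC50 from a four-parameter logistic fit, also expressed relative to the in-plate CNP22 control (×100), with at least two replicates. Compounds (ten concentrations, […], HSA-free diluent with 1% OVA, 0.01% Tween20) were incubated 30 min at 37 °C on HEK293 cells co-expressing hNPR2 and a GloSensor cGMP luciferase. Luminescence detected with Bright-Glo.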

| Compound | hNPR2 0% HSA. [EC50% rel CNP] [%] |
| --- | --- |
| CC[C@H](C)[C@@H]1NC(=O)[C@H](CCCNC(=N)N)NC(=O)[C@H](CC(=O)O)NC(=O)[C@H](CC(C)C)NC(=O)[C@@H]2CCCN2C(=O)[C@H](CC(C)C)NC(=O)CNC(=O)[C@H](Cc2ccccc2)NC(=O)[C@@H](NC(=O)CNC(=O)[C@H](CCC(N)=O)NC(=O)[C@H](CO)NC(=O)[C@H](CC(C)C)NC(=O)CNC(=O)[C@H](CCCCN)NC(=O)[C@H](CCCCN)NC(=O)[C@H](CCC(N)=O)NC(=O)[C@H](C)NC(=O)CNC(=O)[C@H](CCCCN)NC(=O)[C@H](Cc2ccc(O)cc2)NC(=O)[C@H](CCCCN)NC(=O)[C@H](CCCNC(=N)N)NC(=O)[C@H](C)NC(=O)COCCOCCNC(=O)COCCOCCNC(=O)COCCOCCNC(=O)COCCOCCNC(=O)CC[C@H](NC(=O)CC[C@H](NC(=O)CC[C@H](NC(=O)CC[C@H](NC(=O)CC[C@H](NC(=O)CCCCCCCCCCCCCCCCC(=O)O)C(=O)O)C(=O)O)C(=O)O)C(=O)O)C(=O)O)CSSC[C@@H](C(=O)O)NC(=O)CNC(=O)[C@H](CC(C)C)NC(=O)CNC(=O)[C@H](CO)NC(=O)[C@H](CCSC)NC(=O)[C@H](CO)NC(=O)CNC1=O [compound 1465] ({C18 diacid-γGlu-γGlu-γGlu-γGlu-γGlu-AEEA-AEEA-AEEA-AEEA}-ARKYKGAQKKGLSQGCFGLPLDRIGSMSGLGC-OH; disulfide 16-32) | 24.0 |
| CC[C@H](C)[C@@H]1NC(=O)[C@H](CCCNC(=N)N)NC(=O)[C@H](CC(=O)O)NC(=O)[C@H](CC(C)C)NC(=O)[C@@H]2CCCN2C(=O)[C@H](CC(C)C)NC(=O)CNC(=O)[C@H](Cc2ccccc2)NC(=O)[C@@H](NC(=O)CNC(=O)[C@H](CCC(N)=O)NC(=O)[C@H](CO)NC(=O)[C@H](CC(C)C)NC(=O)CNC(=O)[C@H](CCCCN)NC(=O)[C@H](CCCCN)NC(=O)[C@H](CCC(N)=O)NC(=O)[C@H](C)NC(=O)CNC(=O)[C@H](CCCCN)NC(=O)[C@H](Cc2ccc(O)cc2)NC(=O)[C@H](CCCCN)NC(=O)[C@H](CCCNC(=N)N)NC(=O)[C@H](C)NC(=O)[C@H](CCC(N)=O)NC(=O)[C@@H]2CCCN2C(=O)[C@H](Cc2c[nH]cn2)NC(=O)[C@H](CCC(=O)O)NC(=O)[C@H](CCC(N)=O)NC(=O)COCCOCCNC(=O)COCCOCCNC(=O)CC[C@H](NC(=O)CC[C@H](NC(=O)CC[C@H](NC(=O)CC[C@H](NC(=O)CC[C@H](NC(=O)CCCCCCCCCCCCCCCCC(=O)O)C(=O)O)C(=O)O)C(=O)O)C(=O)O)C(=O)O)CSSC[C@@H](C(=O)O)NC(=O)CNC(=O)[C@H](CC(C)C)NC(=O)CNC(=O)[C@H](CO)NC(=O)[C@H](CC(C)C)NC(=O)[C@H](CO)NC(=O)CNC1=O [compound 1471] ({C18 diacid-γGlu-γGlu-γGlu-γGlu-γGlu-AEEA-AEEA}-QEHPQARKYKGAQKKGLSQGCFGLPLDRIGSLSGLGC-OH; disulfide 21-37) | 40.2 |
| CC[C@H](C)[C@@H]1NC(=O)[C@H](CCCNC(=N)N)NC(=O)[C@H](CC(=O)O)NC(=O)[C@H](CC(C)C)NC(=O)[C@@H]2CCCN2C(=O)[C@H](CC(C)C)NC(=O)CNC(=O)[C@H](Cc2ccccc2)NC(=O)[C@@H](NC(=O)CNC(=O)[C@H](CO)NC(=O)[C@H](CO)NC(=O)[C@H](CC(C)C)NC(=O)CNC(=O)[C@H](CCC(=O)O)NC(=O)[C@H](CCCCN)NC(=O)[C@H](CCC(N)=O)NC(=O)[C@H](C)NC(=O)CNC(=O)[C@H](CCC(=O)O)NC(=O)[C@H](Cc2ccc(O)cc2)NC(=O)COCCOCCNC(=O)COCCOCCNC(=O)CC[C@H](NC(=O)CCCCCCCCCCCCCCCCC(=O)O)C(=O)O)CSSC[C@@H](C(=O)O)NC(=O)CNC(=O)[C@H](CC(C)C)NC(=O)CNC(=O)[C@H](CO)NC(=O)[C@H](CC(C)C)NC(=O)[C@H](CO)NC(=O)CNC1=O [compound 1289] ({C18 diacid-γGlu-AEEA-AEEA}-YEGAQKEGLSSGCFGLPLDRIGSLSGLGC-OH; disulfide 13-29) | 2.9 |
| CC[C@H](C)[C@@H]1NC(=O)[C@H](CCCNC(=N)N)NC(=O)[C@H](CC(=O)O)NC(=O)[C@H](CC(C)C)NC(=O)[C@@H]2CCCN2C(=O)[C@H](CC(C)C)NC(=O)CNC(=O)[C@H](Cc2ccccc2)NC(=O)[C@@H](NC(=O)CNC(=O)[C@H](CCC(N)=O)NC(=O)[C@H](CO)NC(=O)[C@@H](NC(=O)CNC(=O)[C@H](CCCCN)NC(=O)[C@H](CCCCN)NC(=O)[C@H](CCC(N)=O)NC(=O)[C@H](C)NC(=O)CNC(=O)[C@H](Cc2c[nH]cn2)NC(=O)[C@H](Cc2ccc(O)cc2)NC(=O)COCCOCCNC(=O)COCCOCCNC(=O)COCCOCCNC(=O)COCCOCCNC(=O)CC[C@H](NC(=O)CC[C@H](NC(=O)CCCCCCCCCCCCCCCCC(=O)O)C(=O)O)C(=O)O)C(C)C)CSSC[C@@H](C(=O)O)NC(=O)CNC(=O)[C@H](CC(C)C)NC(=O)CNC(=O)[C@H](CO)NC(=O)[C@H](CC(C)C)NC(=O)[C@H](CO)NC(=O)CNC1=O [compound 1437] ({C18 diacid-γGlu-γGlu-AEEA-AEEA-AEEA-AEEA}-YHGAQKKGVSQGCFGLPLDRIGSLSGLGC-OH; disulfide 13-29) | 19.9 |
| CC[C@H](C)[C@@H]1NC(=O)[C@H](CCCNC(=N)N)NC(=O)[C@H](CC(=O)O)NC(=O)[C@H](CC(C)C)NC(=O)[C@@H]2CCCN2C(=O)[C@H](CC(C)C)NC(=O)CNC(=O)[C@H](Cc2ccccc2)NC(=O)[C@@H](NC(=O)CNC(=O)[C@H](CCCCN)NC(=O)[C@H](CO)NC(=O)[C@H](CC(C)C)NC(=O)CNC(=O)[C@H](CCCCN)NC(=O)[C@H](CCCCN)NC(=O)[C@H](CCC(N)=O)NC(=O)[C@H](C)NC(=O)CNC(=O)[C@H](Cc2c[nH]cn2)NC(=O)[C@H](CCC(=O)O)NC(=O)COCCOCCNC(=O)COCCOCCNC(=O)CC[C@H](NC(=O)CCCCCCCCCCCCCCCCC(=O)O)C(=O)O)CSSC[C@@H](C(=O)O)NC(=O)CNC(=O)[C@H](CC(C)C)NC(=O)CNC(=O)[C@H](CO)NC(=O)[C@H](CC(C)C)NC(=O)[C@H](CO)NC(=O)CNC1=O [compound 1309] ({C18 diacid-γGlu-AEEA-AEEA}-EHGAQKKGLSKGCFGLPLDRIGSLSGLGC-OH; disulfide 13-29) | 33.3 |
| CC[C@H](C)[C@@H]1NC(=O)[C@H](CCCNC(=N)N)NC(=O)[C@H](CC(=O)O)NC(=O)[C@H](CC(C)C)NC(=O)[C@@H]2CCCN2C(=O)[C@H](CC(C)C)NC(=O)CNC(=O)[C@H](Cc2ccccc2)NC(=O)[C@@H](NC(=O)CNC(=O)[C@H](CCC(N)=O)NC(=O)[C@H](CO)NC(=O)[C@H](CO)NC(=O)CNC(=O)[C@H](Cc2c[nH]cn2)NC(=O)[C@H](CCCCN)NC(=O)[C@H](CCC(N)=O)NC(=O)[C@H](C)NC(=O)CNC(=O)[C@H](Cc2c[nH]cn2)NC(=O)[C@H](Cc2ccc(O)cc2)NC(=O)[C@H](CCCCN)NC(=O)[C@H](Cc2c[nH]cn2)NC(=O)[C@H](C)NC(=O)[C@H](CCC(N)=O)NC(=O)[C@@H]2CCCN2C(=O)[C@H](Cc2c[nH]cn2)NC(=O)[C@H](CCC(=O)O)NC(=O)[C@H](CCC(N)=O)NC(=O)COCCOCCNC(=O)COCCOCCNC(=O)CC[C@H](NC(=O)CC[C@H](NC(=O)CCCCCCCCCCCCCCCCC(=O)O)C(=O)O)C(=O)O)CSSC[C@@H](C(=O)O)NC(=O)CNC(=O)[C@H](CC(C)C)NC(=O)CNC(=O)[C@H](CO)NC(=O)[C@H](CC(C)C)NC(=O)[C@H](CO)NC(=O)CNC1=O [compound 1383] ({C18 diacid-γGlu-γGlu-AEEA-AEEA}-QEHPQAHKYHGAQKHGSSQGCFGLPLDRIGSLSGLGC-OH; disulfide 21-37) | 43.1 |
| CC[C@H](C)[C@@H]1NC(=O)[C@H](CCCNC(=N)N)NC(=O)[C@H](CC(=O)O)NC(=O)[C@H](CC(C)C)NC(=O)[C@@H]2CCCN2C(=O)[C@H](CC(C)C)NC(=O)CNC(=O)[C@H](Cc2ccccc2)NC(=O)[C@@H](NC(=O)CNC(=O)[C@H](CO)NC(=O)[C@H](CO)NC(=O)[C@H](CC(C)C)NC(=O)CNC(=O)[C@H](CCCCN)NC(=O)[C@H](CCCCN)NC(=O)[C@H](CCC(N)=O)NC(=O)[C@H](C)NC(=O)CNC(=O)[C@H](CCCCN)NC(=O)[C@H](Cc2ccc(O)cc2)NC(=O)COCCOCCNC(=O)COCCOCCNC(=O)COCCOCCNC(=O)CC[C@H](NC(=O)CCCCCCCCCCCCCCCCC(=O)O)C(=O)O)CSSC[C@@H](C(=O)O)NC(=O)CNC(=O)[C@H](CC(C)C)NC(=O)CNC(=O)[C@H](CO)NC(=O)[C@H](CC(C)C)NC(=O)[C@H](CO)NC(=O)CNC1=O [compound 1355] ({C18 diacid-γGlu-AEEA-AEEA-AEEA}-YKGAQKKGLSSGCFGLPLDRIGSLSGLGC-OH; disulfide 13-29) | 28.2 |
